TGI and GI50 data for 17 molecules are collected here from PubChem BioAssay (NCI).

Holding throughout (assay): growth of human tumour cells (NCI), 48 h
For assay [1], the system named is DU-145 prostate.
The subject of assay [2] is MDA-MB-231 breast.
The test system of assay [3] is HS 578T breast.
The test system of assay [4] is BT-549 breast.
Assay [5] relates to MDA-MB-435.

Each structure is given as a SMILES string.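 Tested at 5 concentrations; 48 h exposure; 96-well plates; endpoints linearly interpolated, else capped at highest concentration. Here, GI50 denotes the concentration required for 50% inhibition of growth. At the TGI there is no net growth.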

For `COC(=O)[C@H](C)[C@@H]1CC[C@](C)(CCC2=C(C)CCCC2(C)C)OO1`, the TGI in assay [1], in assay [2], in assay [3], in assay [4] and in assay [5] was more than 25 µM in each case.

With `NNc1ncnc2cccc(Cl)c12`, the TGI in assay [1], in assay [2], in assay [3] and in assay [4] was more than 100 µM each time.

Consider `Cn1cc(-c2ccc3nnc(C(F)(F)c4ccc5ncccc5c4)n3n2)cn1`, for which the GI50 in assay [1] was 53.9 µM; in assay [2], 34.2 µM; in assay [3], 34.2 µM; in assay [4], 86.8 µM; in assay [5], 57.8 µM. In addition, the TGI in assay [1], in assay [2], in assay [3], in assay [4] and in assay [5] was more than 100 µM in each case.

As for `COc1ccc2c(c1)CC1N(C)CCC13CCCCC23` (stereo unspecified), the TGI in assay [1], in assay [2], in assay [3], in assay [4] and in assay [5] was more than 100 µM in each case.

For `C=C(C)[C@@H]1CC[C@]2(C(=O)N3CCN(C)CC3)CC[C@]3(C)[C@H](CC[C@@H]4[C@@]5(C)CC[C@H](O)C(C)(C)[C@@H]5CC[C@]43C)[C@@H]12`, the GI50 in assay [1] is 1.85 µM; in assay [2], 1.88 µM; in assay [3], 1.94 µM; in assay [4], 1.74 µM; in assay [5] it was 1.8 µM. Moreover, the TGI came out at 3.4 µM in assay [1]; 3.57 µM in assay [2]; 4.68 µM in assay [3]; 3.49 µM in assay [4]; 3.5 µM in assay [5].

On to `CCOC(=O)Nc1cc(-c2ccc(C)c(NS(C)(=O)=O)c2)nn2c(C)nnc12`, for which the GI50 in assay [1] is 5.02 µM; in assay [2], 0.807 µM; in assay [3] it was 0.563 µM; in assay [4], 5.35 µM; in assay [5], 1.33 µM. In addition, the TGI in assay [1] is more than 100 µM; in assay [2], 20.4 µM; in assay [3], 6.82 µM; in assay [4], more than 100 µM; in assay [5] it was 41.7 µM.

With `C=C(C)C1CCC2(C(=O)O)CCC3(C)C(CCC4C5(C)CCC(O)C(C)(C)C5CCC43C)C12` (stereo unspecified), the TGI in assay [1] was 27.1 µM; in assay [2] it was 10.7 µM; in assay [3], 55.7 µM; in assay [4], 10.9 µM; in assay [5], 48.4 µM.

As for `COc1cc(OC)c(/C=C/C(=O)c2c(O)cc(OC)c(C3CCN(C)CC3)c2OC)c(OC)c1`, the GI50 in assay [1] was 1.75 µM; in assay [3] it was 1.81 µM; in assay [4], 1.43 µM; in assay [5], 1.53 µM. The TGI in assay [1] stood at 3.25 µM; in assay [3], 4.29 µM; in assay [4], 2.73 µM; in assay [5] it was 2.92 µM.

Take `CSc1nc(SC)c2c(C)cn(C3OC(C)C(O)C(O)C3O)c2n1` (stereo unspecified): the TGI in assay [1], in assay [2], in assay [3], in assay [4] and in assay [5] was more than 100 µM throughout.

With `O=C(NCCCl)NCc1ccccc1`, the TGI in assay [1], in assay [2], in assay [3] and in assay [5] was more than 100 µM each time.

For the molecule `O=C(O)c1c[nH]c2c(ccc3[nH]cc(C(=O)O)c(=O)c32)c1=O`, the TGI in assay [1], in assay [2], in assay [3], in assay [4] and in assay [5] was more than 100 µM in each case.

Turning to `N/C(=N\C(N)=N\c1nc2ccccc2s1)c1ccnc(Br)c1`, the GI50 in assay [1] is 15.2 µM; in assay [2], 9.13 µM; in assay [3] it was 3.76 µM; in assay [4], 4.32 µM; in assay [5] it was 2.1 µM. The TGI in assay [1] is more than 100 µM; in assay [2] it was more than 100 µM; in assay [3] it was 46 µM; in assay [4], more than 100 µM; in assay [5], 7.32 µM.

As to `COc1cccc(/C=C2\CCc3ccccc3C2=O)c1`, the GI50 in assay [1] was 6.07 µM; in assay [2], 22.8 µM; in assay [3] it was 3.33 µM; in assay [4], 20 µM; in assay [5] it was 4.15 µM. Further, the TGI in assay [1] turned out to be 18.7 µM; in assay [2], 87.6 µM; in assay [3] it was 17.9 µM; in assay [4], 47.6 µM; in assay [5] it was 20.1 µM.

With `NCCCCCCCCCn1c2c(c3ccccc3c1=O)C(=O)c1ccccc1-2`, the GI50 in assay [1] is 5.98 µM; in assay [2], 1.13 µM; in assay [3] it was 10.3 µM; in assay [4], 9.26 µM; in assay [5], 9.52 µM. The TGI was determined as 15.9 µM in assay [1]; 11.1 µM in assay [2]; 21.9 µM in assay [3]; 18.9 µM in assay [4]; 19.1 µM in assay [5].

Take `Cn1c(=O)c(-c2c(Cl)cccc2Cl)cc2cnc(Nc3ccc(I)cc3)nc21`: the GI50 in assay [1] was less than 0.01 µM; in assay [2] it was 0.259 µM; in assay [3], less than 0.01 µM; in assay [4], 0.0389 µM; in assay [5] it was less than 0.0304 µM. The TGI in assay [1] was 0.139 µM; in assay [2] it was 1.29 µM; in assay [3], 0.235 µM; in assay [4] it was 0.445 µM.

Regarding `ClCc1ccc(-c2ccc(Cn3cnc4c(Cl)ncnc43)cc2)cc1`, the GI50 in assay [1] was 1.49 µM; in assay [2], 1.77 µM; in assay [3], 3.06 µM; in assay [4] it was 3.11 µM. Besides, the TGI was 3.36 µM in assay [1], 3.73 µM in assay [2], more than 100 µM in assay [3] and more than 100 µM in assay [4].

On to `Cc1ccnc(NC(c2ccccc2)c2ccc3cccnc3c2O)c1` (stereo unspecified), for which the GI50 is 4.9 µM in assay [1], 5.65 µM in assay [2], 3.21 µM in assay [3] and 4.18 µM in assay [5]. The TGI in assay [1] is more than 100 µM; in assay [2], 97.1 µM; in assay [3], 35.1 µM; in assay [5], 30.5 µM.
